Read-outs that look alike come from different tables or passages of the source.
How the values were obtained:
[1] = set-up: method as in PMID 23850642; details: rats, 15 min after intravenous injection of 2000 mg/kg; cited from earlier work
mouse cortical neurons = test: NMDA excitotoxicity assay, LDH release; format: cell-based; details: NMDA 30 µM
Experimental: (§1) Primary cortical neurons were prepared from embryonic day 16 C57bl/6J mouse pups or embryonic day 18 Wistar rat pups. Briefly, cerebral cortices were physically and chemically dissociated with 0.25% trypsin-EDTA (Gibco, Waltham, MA, USA) in dissociation medium (HBSS) at 37 °C for 15 min followed by trituration. The dissociated cells were checked under a microscope for single cells and plated out on poly-L-lysine (Sigma-Aldrich) -coated, 24-well plates (187,500 cells/well) for the excitotoxicity assays, and 96-well plates (47,000 cells/well) for the oxidative stress assays. Neuronal cultures were maintained in B27 neurobasal medium with Glutamax and pen-strep (Gibco) in a 5% CO2 incubator at 37 °C, and cells were used at 11–14 days in vitro for experiments.
(§2) Neurons were pretreated with L- or D-carnosine for 24 h prior to NMDA stimulation (30 µM) for 30 min. Post-NMDA stimulation, the cells were washed and incubated back in the original medium in the presence or absence of L- and D-carnosine. Wells were washed and the B27-neurobasal medium was replaced in the presence or absence of L- or D-carnosine. Cytotoxicity was measured after 24 h using the Pierce cytotoxicity lactate dehydrogenase (LDH) assay kit. Cell viability was measured by 3-[4–Dimethylthiazol-2-yl]-2,5-diphenyltetrazolium bromide (MTT) assay, which reflects cell metabolism. After NMDA removal, the cells were evaluated for cell viability after 24 h with the addition of fresh media containing each drug. MTT (Sigma Aldrich; final 5 mg/mL) was added to each well and the cells were incubated for 2 h at 37 °C in the dark. Insoluble formazan was dissolved by the addition of 100 μL of DMSO and the absorbance (570 nm) was measured using a multimode plate reader (EnSpire, PerkinElmer, Waltham, MA, USA).

rat cortical neurons = test: NMDA excitotoxicity assay, LDH release; format: cell-based; details: NMDA 30 µM
Experimental: as §1, §2

[2] = format: in vivo; details: mice, doses up to 1000 mg/kg
primary mouse neurons [3] = test: NMDA excitotoxicity assay, cell viability by MTT; format: cell-based; details: 24 h pretreatment, 24 h after NMDA
Experimental: as §1, with “Neuronal cultures were maintained in B27 neurobasal medium with Glutamax and pen-strep (Gibco) in a 5% CO2 incubator at 37 °C, and cells were used at 11–14 days in vitro for experiments.” left out
Neurons were pretreated with L- or D-carnosine for 24 h prior to NMDA stimulation (30 µM) for 30 min. […] Cytotoxicity was measured after 24 h using the Pierce cytotoxicity lactate dehydrogenase (LDH) assay kit. Cell viability was measured by 3-[4–Dimethylthiazol-2-yl]-2,5-diphenyltetrazolium bromide (MTT) assay, which reflects cell metabolism. After NMDA removal, the cells were evaluated for cell viability after 24 h with the addition of fresh media containing each drug. […] Insoluble formazan was dissolved by the addition of 100 μL of DMSO and the absorbance (570 nm) was measured using a multimode plate reader (EnSpire, PerkinElmer, Waltham, MA, USA).

[4] = test system: transient focal cerebral ischemia (MCAO); test: Transient focal cerebral ischemia (60 min t-MCAO), infarct volume by TTC staining; format: in vivo, mice; details: for infarct volume reduction in comparison to saline: 48 h post-t-MCAO; for infarct volume reduction: 1000 mg/kg intravenously 2 h post-t-MCAO, 48 h post-MCAO
Experimental: Mice were anesthetized by inhalation of 5% isoflurane (in 100% Oxygen) and maintained at 1.5% isoflurane throughout the surgical procedure. Body temperature was monitored throughout surgery using a rectal probe and maintained at 37 + 0.5 °C using a heating pad (World Precision Instruments, Hitchin, Hertfordshire, UK). Laser Doppler flowmetry (Moor Instruments, Sussex, UK) was used to monitor cerebral blood flow. Focal cerebral ischemia was induced by middle cerebral artery occlusion (MCAO) by insertion of an intraluminal monofilament. […] A midline incision was made on the ventral side of the neck and the left common carotid artery (CCA) was isolated and ligated. Another ligature was tied on the left external carotid artery (ECA) and a loose knot was tied onto the internal carotid artery (ICA) as well as CCA just below the bifurcation. A very fine incision was made on the lower end of CCA and the monofilament (Doccol Corporation, Sharon, MA, USA) was advanced approximately 9 mm distal to the bifurcation into the ICA until it reached the distal end of middle cerebral artery (MCA). Relative cerebral blood flow was monitored for initial 10 min postfilament insertion to confirm at least 70% reduction of […] values. The animals were kept under anesthesia for the ischemic period of 60 min, after which the filament was withdrawn and reperfusion (confirmed using LD) was allowed to take place. The knots were untied and the animals were allowed to recover at 37 °C for 1 h before they were transferred to their normal cages. In the first set of experiments, 60 min transient MCAO (t-MCAO) was induced in mice weighing 20-25 g. At the onset of reperfusion, saline or different doses of drugs (L- and D-carnosine; 100, 500 or 1000 mg/kg) were delivered intraperitoneally (IP). Postrecovery, the animals were allowed to recover, placed back in their normal environment for 48 h and then euthanized. (IP administration was used as it was technically difficult to do IV injections at reperfusion). In a second set of experiments, drugs and saline were administered intravenously 2 h post-t-MCAO at 1000 mg/kg. Forty-eight hours post-t-MCAO, mice were deeply anaesthetized with 5% isoflurane, brains were removed and coronal slices with a thickness of 1 mm were prepared. Brain slices were immersed in 2% TTC (Sigma Aldrich) solution and incubated at 37 °C for 20 min. The area of infarction was traced and measured using image J analysis software. The infarct area was also corrected for edema: (1-(total ipsilateral hemisphere-infarct region)/total contralateral hemisphere) × 100. Total infarct volume was calculated as the sum of all infarct areas multiplied by each section thickness.

primary mouse neurons [5] = test: Oxidative stress assay: ROS accumulation (DCF fluorescence) after B27 withdrawal; format: cell-based; details: 24 h B27 withdrawal
Experimental: as §1
Cytosolic oxidative stress was determined using dichlorofluorescein (DCF) fluorescence. Primary neurons were loaded with 20 µM 2′, 7′-dichlorodihydrofluorescein diacetate (H2DCFDA; Invitrogen) for 45 min, washed and oxidative stress was induced by B27-withdrawal for 24 h, in the presence or absence of L- or D-carnosine. The fluorescence of oxidized DCF was read after 24 h at Ex485 nm/Em530 nm using the Pherastar FS platereader.

[6] = Serum pharmacokinetics after single intravenous injection (LC-MS/MS); format: in vivo; details: mice, 1000 mg/kg IV; for serum levels (molar): converted from μg/mL; for half-life: naive pooled noncompartmental analysis
Experimental: Mice were randomly divided into the treatment groups (n = 4~5 mice/group for each time point) and given a single intravenous injection of saline or L-carnosine (1000 mg/kg) or D-carnosine (1000 mg/kg) through the tail vein. Anesthesia was induced by isoflurane inhalation and maintained during intravenous injection. Blood samples were collected by cardiac puncture at 0, 5, 15, 30, 60, 180 and 360 min postadministration of carnosine. Blood was incubated at room temperature for 30 min to allow clotting to occur, followed by centrifugation at 12,000 g to isolate serum. Remaining blood was removed from the body through perfusion with phosphate-buffered saline, and the brain was carefully isolated. Aliquots of brain tissue (300 mg) and serum (150 μL) were stored at −70 °C and used for analysis.
Carnosine levels in serum or brain were determined using liquid chromatography tandem-mass spectrometry (LC-MS/MS) as previously described with a slight modification. H-Tyr-His-OH (Bachem AG, Köln, Germany) was used as internal standard (IS). The entire procedure for sample and standard preparation was carried out on ice. Serum (150 μL) or homogenized brain tissue (300 mg) were deproteinized using an ultrasonicator (VCX 500, Sonics & Materials Inc., Newtown, CT, USA) with 1 mL of 1 M TCA and 50 μL of 3 M TCA, respectively. After spiking the IS (10 μg for brain and 200 ng for serum), each homogenate was centrifuged at 9000 g for 15 min at 4 °C. The supernatant was used for the assay of carnosine concentrations. Calibration curves were obtained by spiking known concentrations of L- or D-carnosine (Sigma-Aldrich, St. Louis, MO, USA) into homogenates of brain or serum obtained from untreated mice, and samples were processed as described above.
Chromatographic separation and quantitation were performed using an LC-MS/MS system composed of HPLC (Ultimate 3000, Dionex, Rome, Italy) coupled with electrospray ionization (ESI) and triple quadrupole-ion trap mass spectrometry (3200 Qtrap, AB Sciex, Ontario, Canada). Synergi C18-L (Phenomenex 150 × 4.6 mm, 4 μm particle size) column was used with a 0.8 mL/min flow rate of mobile phase. Isocratic elution of 75/25 (5 mM heptafluorobutyric acid/acetonitrile) was used for brain samples and gradient elution (95/5 to 80/20 for 6 min and holding for 4 min) was used for serum samples. The injection volume was 5 μL. For ESI source, ion spray voltage was 4.5 kV and capillary temperature was set at 650 °C which provided optimum ionization of each analyte. A multiple reaction monitoring (MRM) in positive mode was used to detect carnosine (m/z 227 > 110 as quant ion, 156 and 83 as qualifier), histidine (m/z 156 > 110 as quant ion, 83 and 82 as qualifier) and IS (m/z 319 > 110 as quant ion, 156 and 91 as qualifier). Pharmacokinetic parameters were calculated by noncompartmental analysis using a sparse sampling and naïve pooled approach (WinNonLin (Phoenix 64 Build 8.0.0.3176), Certara, Mountain View, CA, USA).

[7] = set-up: method as in PMID 19301317; details: cited from earlier work
[8] = set-up: method as in PMID 19301317; details: cited from earlier work; remark: listed apart in the source
[9] = 100 mg/kg IP at onset of reperfusion
[10] = 500 mg/kg IP at onset of reperfusion
[11] = 1000 mg/kg IP at onset of reperfusion

| Structure (SMILES) | reduction of cell death (LDH assay) (mouse cortical neurons; 10 µM) | reduction of cell death (LDH assay) (mouse cortical neurons; 100 µM) | reduction of cell death (LDH assay) (mouse cortical neurons; 200 µM) | reduction of cell death (LDH assay) (rat cortical neurons; 200 µM) | safety and tolerability [2] | protection against decrease of cell viability by NMDA (MTT) (primary mouse neurons [3]) | infarct volume reduction in comparison to saline [4, 9] | infarct volume reduction in comparison to saline [4, 10] | infarct volume reduction in comparison to saline [4, 11] | infarct volume reduction [4] | attenuation of ROS accumulation (primary mouse neurons [5]; 200 µM) | serum levels (molar) ([6]; 5 min after injection) | further results |
| --- | --- | --- | --- | --- | --- | --- | --- | --- | --- | --- | --- | --- | --- |
| NCCC(=O)N[C@@H](Cc1cnc[nH]1)C(=O)O [L-carnosine, β-alanyl-L-histidine] | did not show neuroprotection | did not show neuroprotection | 12.2% | 18.5% | safe and well tolerated | significant protection | 33.4% | 30.94% | 47.4% | 53.8% | 19.3% | 17.7 mmol/L | serum levels of carnosine [1]: 15~20 mmol/L; attenuation of ROS accumulation (primary mouse neurons [5]; 100 µM): 18.6%; clearance ([6]; mouse, serum): 11.1 mL/min/kg; Cmax ([6]; mouse, serum, 5 min after injection): 4010 µg/mL; half-life ([6]; mouse, serum, read-out: Half-Life): 78 min; AUC ([6]; mouse, serum, read-out: AUC (converted)): 1500 µg·h/mL; Vd ([6]; mouse, serum, read-out: Vss): 0.223 L/kg |
| NCCC(=O)N[C@H](Cc1cnc[nH]1)C(=O)O [D-carnosine] | 13.1% | 13.3% | 15% | 22.8% | safe and well tolerated | significant protection | 23.6% | 27.8% | 57.2% | 52.1% | 14.5% | 25.7 mmol/L | ability to cross the blood brain barrier [7]: able to cross the blood brain barrier; reduction of cell death (LDH assay) (rat cortical neurons; 10 µM): 21.9%; reduction of cell death (LDH assay) (rat cortical neurons; 100 µM): 26.4%; stability in human plasma [8]: stable in human plasma; AUC ([6]; serum): 1801.87 µg·h/mL; CL ([6]; serum): 9.23 mL/min/kg; Vss ([6]; serum): 120 mL/kg; Cmax (5 min) ([6]; serum, 5 min after injection): 5818 µg/mL; half-life ([6]; serum): 75 min |
